Assay results from US10471035B2, “Compositions and methods for using esters of meroterpenes and of other resveratrol analogues” (Sunny BioDiscovery, priority 2014, dated 2019).

Tests used:
[1] = DPPH assay (free radical scavenging); assay type: biochemical; conditions: 520 nm
Source text: The objective of this experiment was to determine the antioxidant capacity of SBD.SE, using DPPH assay methodology. DPPH (2,2-diphenyl-1-picrylhydrazyl) is a stable free radical. The principle of the DPPH assay uses the reduction of the DPPH radical (purple) to diphenylpicrylhydrazine (yellow) as an indication of free radical scavenging capacity of a given test material (Schenk, G. H., Swieczkowski, N. K., “Colorimetric determination of pyrogallol and 2,6-dimethoxyphenol with diphenylpicrylhydrazyl,” Talanta, 1971, 18:230-4). Following the incubation of a test agent with DPPH solution, a reduction in absorbance at 520 nm compared to control is indicative of DPPH-scavenging. The degree of DPPH scavenging activity is expressed as % water control.

[2] = test system: mouse melanoma cells (B16F10); experiment: B16F10 melanoma growth and melanin; assay type: cell-based
Source text: Instead, cells cultured in the presence of SBD.SE grew slower and if allowed to reach monolayer, they become growth-arrested due to contact inhibition. […] Other retinoids, such as bexarotene, are known to have antineoplastic activity against cancers such as cutaneous T cell lymphoma.
The mechanism of action for this effect may be multifactorial and involve the inhibition of tyroinase and/or melanin secretion by melanocytes.

3T3 cells = experiment: 3T3 Neutral Red phototoxicity (OECD 432); assay type: cell-based; conditions: up to at least 100 μg/ml
Procedure: Phototoxicity is defined as light-activated cytotoxicity. […] The protocol followed in this example was based on the OECD 432 Guidelines. Four 96 well plates were seeded with 3T3 cells (Sigma, St. Louis, Mo.; cat. 93061524-1VL) at 10,000 cells per well in DMEM supplemented with 10% iron-fortified calf serum, and grown overnight in humidified atmosphere at 37° C. in 5% CO2. Serial dilutions of SBD.SE and chlorpromazine (positive control) were added to 2 plates each. […]
[…] Plates were returned to the incubator for 24 h, afterward the medium was removed, cells were rinsed with PBS and placed in Neutral Red medium at 50 μg/ml in which cells were incubated for 3 more hours. Wells were then washed with PBS and Neutral Red was extracted from cells with 1.0% Glacial Acetic Acid/50% Ethanol/49% H2O solution.
Following a 30-minute extraction with mixing, the absorbance of each well was measured at 570 nm with Molecular Devices SpectraMax® microplate spectrophotometer. P values were calculated using two-tailed Student's test and p=0.05 was set as borderline for statistical significance.

[3] = UVB irradiation, HPLC-MS profile; assay type: physicochemical
Source text: Both compounds were irradiated with UVB light and their HPLC-MS profile was compared to their respective non-irradiated controls. FIGS. 2, 3, 6, and 7 show HPLC chromatograms of UVB-irradiated (lower portions) and non-irradiated samples (upper portions) of bakuchiol (FIGS. 2 and 3) and SBD.SE (FIGS. 6 and 7) detected at 254 nm (FIGS. 2 and 6) and 230 nm (FIGS. 3 and 7).

Compound: C=C[C@@](C)(/C=C/c1ccc(OC(=O)c2ccccc2O)cc1)CCC=C(C)C [SBD.SE, Salicylic acid ester of bakuchiol]
- DPPH color (% Control) ([1]; 0.5 ug/ml): 86 % Control
- DPPH color (% Control) ([1]; 2 ug/ml): 89 % Control
- DPPH color (% Control) ([1]; 10 ug/ml): 59 % Control
- DPPH color (% Control) ([1]; 16 ug/ml): 28 % Control
- DPPH color (% Control) ([1]; 40 ug/ml): 6 % Control
- growth of B16F10 cells ([2]; 1 μg/ml to 10 μg/ml): inhibited the growth
- inhibition at 2.5 µg/mL ([2]; Mus musculus, B16-F10, 2.5 μg/ml, read-out: inhibition of B16F10 melanocyte proliferation): 44%
- melanin in growth medium ([2]; versus darkened medium of water control): completely deprived of melanin
- cytotoxicity in absence and presence of UVB light (3T3 cells): lack of significant cytotoxicity
- stability under UVB irradiation (HPLC-MS) [3]: no difference in mass of the peaks
